Where a name gives a salt, the structure may show the parent alone.
How the values were obtained:
[1] = test system: various organisms; conditions: U.S. Pat. No. 4,406,899; amorphous zwitterionic form; cited from earlier work
[2] = assay type: physicochemical; conditions: water for injection
Protocol: 375 mg L(+)-Arginine for injection is reconstituted with 4.45 ml of sterile water for injection. The solution is taken up in a syringe and is added to a vial containing lyophilized BMY-28142-2HCl having an activity of 500 mg activity per vial. This solution produces a reconstituted solution suitable for injection which has an activity of about 100 mg BMY-28142 per milliliter.
Control of the amount of water used for dilution permitted the attainment of high concentrations up to 400 mg BMY-28142 per ml.

[3] = Stability of lyophilized amorphous BMY-28142 salts (dry, sealed vials); assay type: physicochemical; conditions: for remaining at 168 h: 1 week; for remaining at 1008 h: 6 weeks; for expected shelf life: extrapolated from stability tests; for remaining at 336 h: 2 weeks; for remaining at 672 h: 4 weeks; for remaining at 2184 h: 13 weeks; for remaining at 6888 h: 41 weeks
Protocol: […] of BMY-28142 Zi was dissolved qs to 33 ml with 1.9 ml of 1N-HCl and water for injection (pH=2.0).
One ml portion (approximately 65 mg/ml) of the solution were placed into 10cc flint vials which were loosely stoppered with split lyphlization stoppers, frozen to -40° C. and lyphilized at a shelf temperature of 0° C. for 24 hours, then at 24° C. for 24 hours and at 32.2° C. for four hours. The vials were then sealed with aluminum closures and tested for stability at 56°, 45° and 37° C.

[4] = dry lyophilized solid, 45° C., second lot, separately prepared

SMILES: CO/N=C(\C(=O)N[C@@H]1C(=O)N2C(C(=O)[O-])=C(C[N+]3(C)CCCC3)CS[C@H]12)c1csc(N)n1 [BMY-28142, 7-[α-(2-aminothiazol-4-yl)-α-(Z)-methoxyiminocetamido]-3-[(1-methyl-1-pyrrolidinium)methyl]-3-cephem-4-carboxylate]
- antibacterial spectrum of activity [1]: broader spectrum activity than ceftazidime and cefotaxime
- concentration attained on reconstitution [2]: up to 400 mg per ml

SMILES: CO/N=C(\C(=O)NC1C(=O)N2C(C(=O)[O-])=C(C[N+]3(C)CCCC3)CSC12)c1csc(N)n1 (stereo not shown) [Sesqui-PO4]
- remaining at 168 h ([3]; dry lyophilized solid, 56° C.): 75%
- remaining at 1008 h ([3]; dry lyophilized solid, 37° C.): 79%

SMILES: CO/N=C(\C(=O)NC1C(=O)N2C(C(=O)[O-])=C(C[N+]3(C)CCCC3)CSC12)c1csc(N)n1 (stereo not drawn) [Di-HCl, 7-[α-(2-aminothiazol-4-yl)-α-(Z)-methoxyiminoacetamido]-3-[(1-methyl-1-pyrrolidinium)methyl]-3-cephem-4-carboxylate]
- stability of lyophile compared with other lyophilized amorphous salts [3]: unexpectedly more stable than the lyophilized, amorphous sesqui-H3 PO4, mono-H2 SO4 and mono-HCl salts
- expected shelf life ([3]; 4° C.): at least 24 months
- remaining at 168 h ([3]; dry lyophilized solid, 45° C.): 99.8%
- remaining at 168 h [3, 4]: 100%
- remaining at 336 h ([3]; dry lyophilized solid, 45° C.): 97.2%
- remaining at 336 h ([3]; dry lyophilized solid, 56° C., second lot, separately prepared): 91.8%
- remaining at 672 h ([3]; dry lyophilized solid, 37° C.): 98.6%
- remaining at 672 h [3, 4]: 92.5%
- remaining at 4320 h ([3]; dry lyophilized solid, 6 months, 25° C., second lot, separately prepared): 100%
- remaining at 1008 h ([3]; dry lyophilized solid, 37° C., second lot, separately prepared): 97.2%
- remaining at 1344 h ([3]; dry lyophilized solid, 8 weeks, 56° C.): 87%
- remaining at 2184 h ([3]; dry lyophilized solid, 37° C.): 95.5%
- remaining at 2184 h ([3]; dry lyophilized solid, 45° C.): 91.6%
- remaining at 4368 h ([3]; dry lyophilized solid, 26 weeks, 45° C.): 87.7%
- remaining at 6888 h ([3]; dry lyophilized solid, 25° C.): 98.1%
- remaining at 6888 h ([3]; dry lyophilized solid, 37° C.): 91.7%
- remaining at 8736 h ([3]; dry lyophilized solid, 52 weeks, 25° C., second lot, separately prepared): 100%
- expected shelf life ([3]; room temperature): at least 12 months

From patent US5095011A, “Lyophilized cefepime dihydrochloride for parenteral use” (priority 1990, dated 1992)
